# Results published in article PMC12118597 (Science Advances, 2025).
# Target: T1, SARS-CoV-2 NSP3 macrodomain (Mac1) (Severe acute respiratory syndrome coronavirus 2, UniProt P0DTD1)
# Assay: biochemical
# Format: binding
# Conditions: SARS CoV-2 macrodomain HTRF assay
Compound,Ki [µM],Ligand efficiency (binding enery per heavy atom)
OC[C@@H]1C[C@H](O)CN1c1ncnc2[nH]ccc12 [AVI-610],150,0.31
CCC(C)(CO)Nc1ncnc2[nH]ccc12 (centres unmarked) [AVI-3697],34,0.39

# Same assay, conditions: SARS CoV-2 macrodomain HTRF assay, dose-response; read-out: IC50
row,Compound,IC50 [µM]
1,OC[C@@H]1C[C@H](O)CN1c1ncnc2[nH]ccc12 [AVI-610],160
2,CCC(C)(CO)Nc1ncnc2[nH]ccc12 (centres unmarked) [AVI-3697],36

# Same assay, conditions: SARS CoV-2 macrodomain HTRF assay, single dose concentration 200 μM
row,Compound,Average % competition [%]
1,NC(=O)C1(O)CCN(c2ncnc3[nH]ccc23)C1 (centres unmarked) [AVI-611],30

# Same assay, conditions: SARS CoV-2 macrodomain HTRF assay, single dose concentration 200 μM; read-out: Average % competition
row,Compound,inhibition at 200 µM [%]
1,CC(C)(C)[C@@H]1CCN(c2ncnc3[nH]ccc23)[C@H](CO)C1 [AVI-3722],22
2,CN1CCN(c2ncnc3[nH]ccc23)C(CO)C1 (centres unmarked) [AVI-3721],11
3,CC1CCN(c2ncnc3[nH]ccc23)C1CO (centres unmarked) [AVI-3655],75
4,Cc1nn(C)cc1C1CC[C@H](CO)N1c1ncnc2[nH]ccc12 (some centres unmarked) [AVI-3733],44
5,CO[C@@H]1C[C@H](CO)N(c2ncnc3[nH]ccc23)C1 [AVI-3656],41

# Same assay, conditions: Single dose, concentration 200 μM
row,Compound,Average % competition [%]
1,OCC(Nc1ncnc2[nH]ccc12)C1CCCC1 (centres unmarked) [AVI-3649],68

# Same assay, conditions: compound at 200 μM; mean of three to four technical replicates; read-out: % competition at 200 μM (preliminary HTRF screen)
row,Compound,inhibition at 200 µM [%]
1,OCC(Nc1ncnc2[nH]ccc12)C1CCCC1 (centres unmarked) [AVI-3649],68
2,CC(C)(C)[C@@H]1CCN(c2ncnc3[nH]ccc23)[C@H](CO)C1 [AVI-3722],22
3,CN1CCN(c2ncnc3[nH]ccc23)C(CO)C1 (centres unmarked) [AVI-3721],11
4,CC1CCN(c2ncnc3[nH]ccc23)C1CO (centres unmarked) [AVI-3655],75
5,Cc1nn(C)cc1C1CC[C@H](CO)N1c1ncnc2[nH]ccc12 (some centres unmarked) [AVI-3733],44
6,CO[C@@H]1C[C@H](CO)N(c2ncnc3[nH]ccc23)C1 [AVI-3656],41
7,NC(=O)C1(O)CCN(c2ncnc3[nH]ccc23)C1 (centres unmarked) [AVI-611],30

# Target: T1, SARS-CoV-2 NSP3 macrodomain (Mac1)
# Assay: not given
# Format: binding
# Conditions: crystal soak 10 mM; TFA/DMSO background map
Compound,"PanDDA run, TFA/DMSO background map: 1-BDC","PanDDA run, TFA/DMSO background map: Hit"
OCC(Nc1ncnc2[nH]ccc12)C1CCCC1 (centres unmarked) [AVI-3649],0.11,TRUE
CC1CCN(c2ncnc3[nH]ccc23)C1CO (centres unmarked) [AVI-3655],0.18,TRUE

# Same assay, conditions: ligand modeling, Mac1 crystal soak
row,Compound,Number of isomers bound
1,OCC(Nc1ncnc2[nH]ccc12)C1CCCC1 (centres unmarked) [AVI-3649],1
2,CC(C)(C)[C@@H]1CCN(c2ncnc3[nH]ccc23)[C@H](CO)C1 [AVI-3722],1
3,CN1CCN(c2ncnc3[nH]ccc23)C(CO)C1 (centres unmarked) [AVI-3721],1
4,CC1CCN(c2ncnc3[nH]ccc23)C1CO (centres unmarked) [AVI-3655],1
5,OC[C@@H]1C[C@H](O)CN1c1ncnc2[nH]ccc12 [AVI-610],1
6,Cc1nn(C)cc1C1CC[C@H](CO)N1c1ncnc2[nH]ccc12 (some centres unmarked) [AVI-3733],1
7,CO[C@@H]1C[C@H](CO)N(c2ncnc3[nH]ccc23)C1 [AVI-3656],1
8,NC(=O)C1(O)CCN(c2ncnc3[nH]ccc23)C1 (centres unmarked) [AVI-611],1
9,CCC(C)(CO)Nc1ncnc2[nH]ccc12 (centres unmarked) [AVI-3697],1

# Same assay, conditions: stereoisomer(s) modeled as bound, residues 201/202/203
row,Compound,Isomers modeled
1,CN1CCN(c2ncnc3[nH]ccc23)C(CO)C1 (centres unmarked) [AVI-3721],"R,R"
2,NC(=O)C1(O)CCN(c2ncnc3[nH]ccc23)C1 (centres unmarked) [AVI-611],"S,S"
